Results as given in US20140357487A1, “PLANTS HAVING INCREASED TOLERANCE TO HERBICIDES” (BASF SE, priority 2011, published 2014).

Experiments:
Hordeum HPPD (SEQ ID: 2) = molecular target: T1, Hordeum HPPD (SEQ ID: 2) (Hordeum vulgare, UniProt O48604, A164G/R146V/R147D/R148G); assay: HPPD activity assay, Hordeum wild-type HPPD; type: biochemical; settings: for tolerance index TI: not normalized
T1 construct: His (N); made in house; host or cells: E. coli BL21 (DE3)
Method: (§1) HPPD produces homogentisic acid and CO2 from 4-hydroxyphenylpyruvate (4-HPP) and O2. The activity assay for HPPD is based on the analysis of homogentisic acid by reversed phase HPLC.
(§2) The assay mixture can contain 150 mM potassium phosphate buffer pH 7.0, 50 mM L-ascorbic acid, 1 μM FeSO4 and 7 μg of purified enzyme in a total volume of 1 ml.
(§3) Inhibitors are dissolved in DMSO (dimethylsulfoxide) to a concentration of 20 mM or 0.5 mM, respectively. From this stock solution serial five-fold dilutions are prepared in DMSO, which are used in the assay. The respective inhibitor solution accounts for 1% of the assay volume. […] After a preincubation of 30 min the reaction is started by adding 4-HPP to a final concentration of 0.1 mM. The reaction is allowed to proceed for 120 min at room temperature. The reaction is stopped by addition of 100 μl of 4.5 M phosphoric acid.
(§4) Activities are normalized by setting the uninhibited enzyme activity to 100%. IC50 values are calculated using non-linear regression.
(§5) The assay mixture can contain 150 mM potassium phosphate buffer pH 7.0, 50 mM L-ascorbic acid, 100 μM Catalase (Sigma-Aldrich), 1 μM FeSO4 and 0.2 units of purified HPPD enzyme in a total volume of 505 μl. 1 unit is defined as the amount of enzyme that is required to produce 1 nmol of HGA per minute at 20° C.
(§6) Inhibitors are dissolved in DMSO (dimethylsulfoxide) to a concentration of 0.5 mM. From this stock solution serial five-fold dilutions are prepared in DMSO, which are used in the assay. The respective inhibitor solution accounts for 1% of the assay volume. […] Activities are normalized by setting the uninhibited enzyme activity to 100%. IC50 values are calculated using non-linear regression.
(§7) Using methods which are described in the above examples or well known in the art, purified, recombinant wildtype HPPD enzymes are characterized with respect to their kinetic properties and sensitivity towards HPPD inhibiting herbicides. Apparent michaelis constants (Km) and maximal reaction velocities (Vmax) are calculated by non-linear regression with the software GraphPad Prism 5 (GraphPad Software, La Jolla, USA) using a substrate inhibition model.
(§8) Field performance of the HPPD enzyme, which is used as a herbicide tolerance trait, may depend not only on its lack of sensitivity towards HPPD inhibiting herbicides but also on its activity. To assess the potential performance of a herbicide tolerance trait a tolerance index (TI) is calculated using the following formula: […]

Avena HPPD = assay: HPPD activity assay, Avena HPPD; type: biochemical, Avena sativa; settings: normalized on Arabidopsis wild-type HPPD
Method: as §1, §2
(§9) Inhibitors are dissolved in DMSO (dimethylsulfoxide) to a concentration of 20 mM or 0.5 mM, respectively. From this stock solution serial five-fold dilutions are prepared in DMSO, which are used in the assay. The respective inhibitor solution accounts for 1% of the assay volume. Thus, final inhibitor concentrations range from 200 μM to 2.5 nM or from 5 μM to 63 pM, respectively. After a preincubation of 30 min the reaction is started by adding 4-HPP to a final concentration of 0.1 mM. The reaction is allowed to proceed for 120 min at room temperature. The reaction is stopped by addition of 100 μl of 4.5 M phosphoric acid.
as §4, §5
(§10) Inhibitors are dissolved in DMSO (dimethylsulfoxide) to a concentration of 0.5 mM. From this stock solution serial five-fold dilutions are prepared in DMSO, which are used in the assay. The respective inhibitor solution accounts for 1% of the assay volume. Thus, final inhibitor concentrations range from 5 μM to 320 pM, respectively. Activities are normalized by setting the uninhibited enzyme activity to 100%. IC50 values are calculated using non-linear regression.
as §7, with “model. […] Weighted means (by standard error) of Km and […] values are calculated from at least three independent experiments. […]” for “model.”
as §8

Lolium HPPD = assay: HPPD activity assay, Lolium HPPD; type: biochemical; settings: normalized on Arabidopsis wild-type HPPD
Method: as §1, §2, §9, §4, §5, §10
as §7, with “model. […] Weighted means (by standard error) of Km and […] values are calculated from at least three independent experiments. […]” for “model.”
as §8

Picrophilus HPPD = assay: HPPD activity assay, Picrophilus HPPD; type: biochemical; settings: normalized on Arabidopsis wild-type HPPD
Method: as §1, §2, §9, §4
(§11) The assay mixture can contain 150 mM potassium phosphate buffer pH 7.0, 50 mM L-ascorbic acid, 100 μM Catalase (Sigma-Aldrich), 1 μM FeSO4 and 0.2 units of purified HPPD enzyme in a total volume of 505 μl. […]
(§12) Inhibitors are dissolved in DMSO (dimethylsulfoxide) to a concentration of 0.5 mM. […] IC50 values are calculated using non-linear regression.
as §7, with “model. […] Weighted means (by standard error) of Km and […] values are calculated from at least three independent experiments. […]” for “model.”

Rhodococcus HPPD2 = assay: HPPD activity assay, Rhodococcus HPPD2; type: biochemical; settings: normalized on Arabidopsis wild-type HPPD
Method: as §1, §2, §9, §4, §11, §12
as §7, with “model. […] Weighted means (by standard error) of Km and […] values are calculated from at least three independent experiments. […]” for “model.”

[1] = molecular target: T2, Hordeum HPPD variant L353M, P321R, V212I, L334E (Hordeum vulgare, UniProt O48604, L334E/L353M/P321R/V212I); assay: HPPD activity assay, Hordeum HPPD mutant L353M, P321R, V212I, L334E; type: biochemical; settings: normalized on Hordeum wild-type HPPD
T2 construct: His (N); made in house; host or cells: E. coli BL21 (DE3)
T2 sequence (O48604 whole entry R146V/R147D/R148G/A164G/V212I/P321R/L334E/L353M): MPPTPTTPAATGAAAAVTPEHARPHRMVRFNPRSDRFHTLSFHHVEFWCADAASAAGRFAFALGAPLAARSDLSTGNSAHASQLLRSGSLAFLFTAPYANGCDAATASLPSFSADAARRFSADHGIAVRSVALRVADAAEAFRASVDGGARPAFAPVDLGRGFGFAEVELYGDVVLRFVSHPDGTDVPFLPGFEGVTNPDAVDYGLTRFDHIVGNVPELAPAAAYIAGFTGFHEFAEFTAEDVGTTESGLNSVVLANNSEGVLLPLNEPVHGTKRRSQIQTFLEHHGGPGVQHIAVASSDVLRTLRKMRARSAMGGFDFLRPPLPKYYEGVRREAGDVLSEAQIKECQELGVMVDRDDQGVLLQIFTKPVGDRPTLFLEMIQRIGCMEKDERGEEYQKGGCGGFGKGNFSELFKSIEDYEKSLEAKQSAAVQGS
Method: as §1, §2, §3, §4, §5, §6
(§13) Purified, mutant HPPD enzymes are obtained by the methods described above. Dose response and kinetic measurements are carried out using the described HPPD activity assay. Apparent michaelis constants (Km) and maximal reaction velocities (Vmax) are calculated by non-linear regression with the software GraphPad Prism 5 (GraphPad Software, La Jolla, USA) using a substrate inhibition model.
as §8, with “of the optimized HPPD enzyme,” for “of the HPPD enzyme,”, “herbicide tolerance trait may depend” for “herbicide tolerance trait, may depend”
(§14) Easy comparison and ranking of each trait is enabled by normalizing tolerance indexes on Arabidopsis or Hordeum wild-type HPPD.

[2] = molecular target: T3, Hordeum HPPD variant V212L (Hordeum vulgare, UniProt O48604, A164G/R146V/R147D/R148G/V212L); assay: HPPD activity assay, Hordeum HPPD mutant V212L; type: biochemical; settings: normalized on Hordeum wild-type HPPD
T3 construct: His (N); made in house; host or cells: E. coli BL21 (DE3)
T3 sequence (O48604 whole entry R146V/R147D/R148G/A164G/V212L): as the sequence (O48604 whole entry R146V/R147D/R148G/A164G/V212I/P321R/L334E/L353M) above, with I212L, R321P, E334L, M353L counted along it
Method: as §1, §2, §3, §4, §5, §6, §13
as §8, with “of the optimized HPPD enzyme,” for “of the HPPD enzyme,”, “herbicide tolerance trait may depend” for “herbicide tolerance trait, may depend”
as §14

[3] = molecular target: T4, Hordeum HPPD variant L320H (Hordeum vulgare, UniProt O48604, A164G/L320H/R146V/R147D/R148G); assay: HPPD activity assay, Hordeum HPPD mutant L320H; type: biochemical; settings: normalized on Hordeum wild-type HPPD
T4 construct: His (N); made in house; host or cells: E. coli BL21 (DE3)
T4 sequence (O48604 whole entry R146V/R147D/R148G/A164G/L320H): as the sequence (O48604 whole entry R146V/R147D/R148G/A164G/V212I/P321R/L334E/L353M) above, with I212V, L320H, R321P, E334L, M353L counted along it
Method: as §1, §2, §3, §4, §5, §12
Purified, mutant HPPD enzymes are obtained by the methods described above. […] Apparent michaelis constants (Km) and maximal reaction velocities (Vmax) are calculated by non-linear regression with the software GraphPad Prism 5 (GraphPad Software, La Jolla, USA) using a substrate inhibition model.
as §8, with “of the optimized HPPD enzyme,” for “of the HPPD enzyme,”, “herbicide tolerance trait may depend” for “herbicide tolerance trait, may depend”

[4] = Hordeum HPPD Wildtype, normalized on Hordeum wild-type HPPD
[5] = Hordeum HPPD, normalized on Arabidopsis wild-type HPPD

T1 sequence (O48604 whole entry R146V/R147D/R148G/A164G): as the sequence (O48604 whole entry R146V/R147D/R148G/A164G/V212I/P321R/L334E/L353M) above, with I212V, R321P, E334L, M353L counted along it

Compound	Ki (Hordeum HPPD (SEQ ID: 2)) [nM]	Normalized tolerance index TI (Hordeum HPPD (SEQ ID: 2); [4])	Normalized tolerance index TI (Hordeum HPPD (SEQ ID: 2); [5])	tolerance index TI (Hordeum HPPD (SEQ ID: 2); Hordeum HPPD)	Normalized tolerance index TI (Avena HPPD)	Normalized tolerance index TI (Lolium HPPD)	Normalized tolerance index TI (Picrophilus HPPD)	Normalized tolerance index TI (Rhodococcus HPPD2)	Normalized tolerance index TI [1]	Normalized tolerance index TI [2]	Normalized tolerance index TI [3]
CC1(C)c2cccnc2C(O)=C(c2ccc(Cl)nc2Cl)S1(=O)=O [Inhibitor 2, 7-(2,6-dichloro-3-pyridyl)-5,5-dimethyl-6,6-dioxo-thiopyrano[4,3-b]pyridin-8-ol]	4.9	1	0.5	2.2E−3	2.8	1.8	86.4	11.4	1.9	1.1	2.7
COCCOCc1c(Cl)ccc(C2=C(O)c3ncccc3C(C)(C)S2(=O)=O)c1Cl [Inhibitor 3, 7-[2,4-dichloro-3-(2-methoxyethoxymethyl)phenyl]-5,5-dimethyl-6,6-dioxo-thiopyrano[4,3-b]pyridin-8-ol]		1	0		0.1	0.3	17.2	2.1	2.1	0.7	7.4
CC1=NOC(c2c(Cl)ccc(C3=C(O)c4ncccc4C(C)(C)S3(=O)=O)c2Cl)C1 (stereo not shown) [Inhibitor 1, 7-[2,4-dichloro-3-(3-methyl-4,5-dihydroisoxazol-5-yl)phenyl]-5,5-dimethyl-6,6-dioxo-thiopyrano[4,3-b]pyridin-8-ol]	6.6	1	0.7	2.9E−3	4.7	4.2	283	73	2.2	0.8	8.5
